Patent US10358434B2, “2-(3-pyridinyl)-1H-benzimidazole derivative compound and medicament containing same” (NIHON MEDI-PHYSICS CO., LTD., priority 2014, dated 2019)

Columns and labels:
[1] = In vivo kinetics experiment (radioactivity distribution); set-up: species or system Wistar male rat; conditions: rat i.v., mean ± SD
Outline: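 Male Wistar rats (9 weeks) under isoflurane received approximately 1 to 3.7 MBq radiotracer in saline with 1 w/v % ascorbic acid by tail-vein injection. At 10, 30 and 60 min, rats were exsanguinated; blood, organs and remaining body weighed and counted, giving % ID/g and adrenal-to-tissue ratios.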

[2] = test system: human adrenal gland section expressing aldosterone-producing adenoma; assay: In vitro autoradiography using human adrenal adenoma; type: binding; conditions: section of FIG. 17(b)
Outline: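 Frozen 7-μm sections of human adrenal bearing aldosterone-producing adenoma were immersed 10 min in radioligand (5-33 kBq/mL) in PBS with 1% fatty-acid-free BSA, washed, then exposed to imaging plates for 16-20 h. Equal-area ROI PSL in adenoma (B2) versus normal cortex (B1) gave B2/B1, corrected for nuclide half-life, added activity and exposure time.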

[3] = Plasma stability evaluation (TLC analysis); type: in vitro ADME; conditions: 37° C., 60 minutes, TLC analysis
Outline: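 Radiolabelled compounds were incubated in heparin-treated pooled normal human plasma at 37° C for 60 minutes. After methanol deproteinization and centrifugation, stability was assessed by TLC under the conditions used for each compound's synthesis.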

SMILES: FCCn1c(-c2cncc(Cn3ccnc3)c2)nc2ccc([123I])cc21 [[^123I] 604, 1-(2-Fluoroethyl)-2-[5-{(imidazol-1-yl)methyl}pyridin-3-yl]-6-[^123I]iodobenzimidazole]
- Adrenal gland/blood ratio of radioactivity accumulation ([1]; 10 min after administration): 75.41 ± 30.78
- Adrenal gland/fat ratio of radioactivity accumulation ([1]; 10 min after administration): 92.23 ± 49.88
- Adrenal gland/kidney ratio of radioactivity accumulation ([1]; 10 min after administration): 4.89 ± 2.15
- Adrenal gland/liver ratio of radioactivity accumulation ([1]; 10 min after administration): 2.48 ± 1.00
- Adrenal gland/muscle ratio of radioactivity accumulation ([1]; 10 min after administration): 67.00 ± 51.23
- Adrenal gland/small intestine ratio of radioactivity accumulation ([1]; 10 min after administration): 7.85 ± 3.21
- Radioactivity distribution Adrenal gland ([1]; 10 min after administration): 10.24 ± 4.48 % ID/g
- Radioactivity distribution Bladder (including urine) ([1]; 10 min after administration): 0.43 ± 0.13 % ID/g
- Radioactivity distribution Blood ([1]; 10 min after administration): 0.13 ± 0.01 % ID/g
- Radioactivity distribution Fat ([1]; 10 min after administration): 0.11 ± 0.01 % ID/g
- Radioactivity distribution Femur ([1]; 10 min after administration): 0.85 ± 0.40 % ID/g
- Radioactivity distribution Heart ([1]; 10 min after administration): 0.65 ± 0.09 % ID/g
- Radioactivity distribution Kidney ([1]; 10 min after administration): 2.09 ± 0.09 % ID/g
- Radioactivity distribution Large intestine ([1]; 10 min after administration): 0.11 ± 0.01 % ID/g
- Radioactivity distribution Liver ([1]; 10 min after administration): 4.09 ± 0.45 % ID/g
- Radioactivity distribution Lung ([1]; 10 min after administration): 0.98 ± 0.16 % ID/g
- Radioactivity distribution Muscle (lower limbs) ([1]; 10 min after administration): 0.18 ± 0.05 % ID/g
- Radioactivity distribution Remaining whole body ([1]; 10 min after administration): 0.24 ± 0.01 % ID/g
- Radioactivity distribution Small intestine ([1]; 10 min after administration): 1.29 ± 0.12 % ID/g
- Radioactivity distribution Spleen ([1]; 10 min after administration): 5.59 ± 1.78 % ID/g
- Radioactivity distribution Stomach ([1]; 10 min after administration): 0.66 ± 0.34 % ID/g
- Radioactivity distribution Testis ([1]; 10 min after administration): 0.04 ± 0.01 % ID/g
- Radioactivity distribution Whole brain ([1]; 10 min after administration): 0.01 ± 0.00 % ID/g
- Adrenal gland/blood ratio of radioactivity accumulation ([1]; 30 min after administration): 170.18 ± 126.19
- Adrenal gland/fat ratio of radioactivity accumulation ([1]; 30 min after administration): 156.19 ± 135.29
- Adrenal gland/kidney ratio of radioactivity accumulation ([1]; 30 min after administration): 9.69 ± 6.36
- Adrenal gland/liver ratio of radioactivity accumulation ([1]; 30 min after administration): 8.55 ± 5.73
- Adrenal gland/muscle ratio of radioactivity accumulation ([1]; 30 min after administration): 100.20 ± 67.99
- Adrenal gland/small intestine ratio of radioactivity accumulation ([1]; 30 min after administration): 4.37 ± 1.61
- Radioactivity distribution Adrenal gland ([1]; 30 min after administration): 15.46 ± 8.64 % ID/g
- Radioactivity distribution Bladder (including urine) ([1]; 30 min after administration): 1.13 ± 0.19 % ID/g
- Radioactivity distribution Blood ([1]; 30 min after administration): 0.10 ± 0.02 % ID/g
- Radioactivity distribution Fat ([1]; 30 min after administration): 0.12 ± 0.03 % ID/g
- Radioactivity distribution Femur ([1]; 30 min after administration): 0.83 ± 0.03 % ID/g
- Radioactivity distribution Heart ([1]; 30 min after administration): 0.64 ± 0.04 % ID/g
- Radioactivity distribution Kidney ([1]; 30 min after administration): 1.65 ± 0.27 % ID/g
- Radioactivity distribution Large intestine ([1]; 30 min after administration): 0.14 ± 0.02 % ID/g
- Radioactivity distribution Liver ([1]; 30 min after administration): 1.89 ± 0.21 % ID/g
- Radioactivity distribution Lung ([1]; 30 min after administration): 0.97 ± 0.10 % ID/g
- Radioactivity distribution Muscle (lower limbs) ([1]; 30 min after administration): 0.16 ± 0.02 % ID/g
- Radioactivity distribution Remaining whole body ([1]; 30 min after administration): 0.27 ± 0.01 % ID/g
- Radioactivity distribution Small intestine ([1]; 30 min after administration): 3.40 ± 0.80 % ID/g
- Radioactivity distribution Spleen ([1]; 30 min after administration): 6.71 ± 0.48 % ID/g
- Radioactivity distribution Stomach ([1]; 30 min after administration): 0.61 ± 0.14 % ID/g
- Radioactivity distribution Testis ([1]; 30 min after administration): 0.05 ± 0.01 % ID/g
- Radioactivity distribution Whole brain ([1]; 30 min after administration): 0.01 ± 0.00 % ID/g
- Adrenal gland/blood ratio of radioactivity accumulation ([1]; 60 min after administration): 329.57 ± 56.14
- Adrenal gland/fat ratio of radioactivity accumulation ([1]; 60 min after administration): 161.46 ± 40.00
- Adrenal gland/kidney ratio of radioactivity accumulation ([1]; 60 min after administration): 15.22 ± 1.37
- Adrenal gland/liver ratio of radioactivity accumulation ([1]; 60 min after administration): 19.61 ± 2.12
- Adrenal gland/muscle ratio of radioactivity accumulation ([1]; 60 min after administration): 130.19 ± 7.34
- Adrenal gland/small intestine ratio of radioactivity accumulation ([1]; 60 min after administration): 5.02 ± 1.64
- Radioactivity distribution Adrenal gland ([1]; 60 min after administration): 18.65 ± 1.67 % ID/g
- Radioactivity distribution Bladder (including urine) ([1]; 60 min after administration): 3.04 ± 1.32 % ID/g
- Radioactivity distribution Blood ([1]; 60 min after administration): 0.06 ± 0.01 % ID/g
- Radioactivity distribution Fat ([1]; 60 min after administration): 0.12 ± 0.04 % ID/g
- Radioactivity distribution Femur ([1]; 60 min after administration): 0.90 ± 0.10 % ID/g
- Radioactivity distribution Heart ([1]; 60 min after administration): 0.56 ± 0.01 % ID/g
- Radioactivity distribution Kidney ([1]; 60 min after administration): 1.23 ± 0.01 % ID/g
- Radioactivity distribution Large intestine ([1]; 60 min after administration): 0.55 ± 0.52 % ID/g
- Radioactivity distribution Liver ([1]; 60 min after administration): 0.96 ± 0.10 % ID/g
- Radioactivity distribution Lung ([1]; 60 min after administration): 0.78 ± 0.03 % ID/g
- Radioactivity distribution Muscle (lower limbs) ([1]; 60 min after administration): 0.14 ± 0.01 % ID/g
- Radioactivity distribution Remaining whole body ([1]; 60 min after administration): 0.28 ± 0.04 % ID/g
- Radioactivity distribution Small intestine ([1]; 60 min after administration): 3.98 ± 1.32 % ID/g
- Radioactivity distribution Spleen ([1]; 60 min after administration): 5.62 ± 1.11 % ID/g
- Radioactivity distribution Stomach ([1]; 60 min after administration): 0.89 ± 0.21 % ID/g
- Radioactivity distribution Testis ([1]; 60 min after administration): 0.05 ± 0.01 % ID/g
- Radioactivity distribution Whole brain ([1]; 60 min after administration): 0.01 ± 0.00 % ID/g
- B2/B1 accumulation ratio [2]: 1.93
- B2 (PSL value, aldosterone-producing adenoma) ([2]; site 71b): 3493
- B1 (PSL value, normal adrenal cortex) ([2]; site 72b): 1813
- Radiochemical purity after incubation in human plasma [3]: 85%
